Where a name gives a salt, the structure may show the parent alone. Bounds are passed on as bounds.

For 28 molecules, melting point results are on record in patent US7119111B2, “2-oxo-1,3,4-trihydroquinazolinyl derivatives and methods of use” (Amgen, Inc., priority 2002, dated 2006).

`O=C1Nc2ccc(N3CCCCC3)cc2CN1c1nc(-c2ccncc2)cs1` [Example 36, 6-Piperidyl-3-(4-(4-pyridyl)(1,3-thiazol-2-yl))-1,3,4-trihydroquinazolin-2-one]: the melting point (usually the temperature, or range, at which the solid turns liquid) is above 272 °C.

`CN1CCC[C@H]1COc1ccc2c(c1)CN(c1nc(-c3ccncc3)ns1)C(=O)N2` [Example 54, 6-[((2S)-1-Methylpyrrolidin-2-yl)methoxy]-3-(3-(4-pyridyl)-(1,2,4-thiadiazol-5-yl))-1,3,4-trihydroquinazolin-2-one] returned a melting point above 275 °C.

The molecule `COc1cccc(-c2cccc3c2CN(c2csc(-c4ccncc4)n2)C(=O)N3)c1` [Example 57, 5-(3-Methoxyphenyl)-3-(2-(4-pyridyl)(1,3-thiazol-4-yl))-1,3,4-trihydroquinazolin-2-one] showed a melting point of 250 to 252 °C.

Molecule `O=C1Nc2ccccc2CN1c1ccc(-c2ccncc2)s1` [Example 47, 3-(5-(4-Pyridyl)-2-thienyl)-1,3,4-trihydroquinazolin-2-one] showed a melting point of 301 to 305 °C.

For the molecule `O=C1Nc2cccc(OCCN3CCOCC3)c2CN1c1nc(-c2ccncc2)ns1` (as salt: salt) [Example 51, 5-(2-Morpholin-4-ylethoxy)-3-(3-(4-pyridyl)(1,2,4-thiadiazol-5-yl))-1,3,4-trihydroquinazolin-2-one], the melting point fell in the range of 259 to 260 °C.

For `Cc1ccc2c(c1)CN(c1csc(-c3ccncc3)n1)C(=O)N2` [Example 7, 6-Methyl-3-(2-(4-pyridyl)(1,3-thiazol-4-yl))-1,3,4-trihydroquinazolin-2-one], the melting point was in the range of 259 to 261 °C.

In turn, `O=C1Nc2cccc(Cl)c2CN1c1csc(-c2ccncc2)n1` [Example 11, 5-Chloro-3-(2-(4-pyridyl)(1,3-thiazol-4-yl))-1,3,4-trihydroquinazolin-2-one] gave a melting point of 292 to 293 °C.

With `O=C1Nc2cccc(N3CCOCC3)c2CN1c1nc(-c2ccncc2)ns1` [Example 53, 5-Morpholin-4-yl-3-(3-(4-pyridyl)(1,2,4-thiadiazol-5-yl))-1,3,4-trihydroquinazolin-2-one], the melting point is above 300 °C.

`CN1CCN(c2ccc3c(c2)CN(c2nc(-c4ccncc4)cs2)C(=O)N3)CC1` [Example 38, 6-(4-Methylpiperazinyl)-3-(4-(4-pyridyl)(1,3-thiazol-2-yl))-1,3,4-trihydroquinazolin-2-one] displayed a melting point of 301 to 304 °C.

In turn, `O=C1Nc2ccc(F)cc2CN1c1csc(-c2ccncc2)n1` [Example 10, 6-Fluoro-3-(2-(4-pyridyl)(1,3-thiazol-4-yl))-1,3,4-trihydroquinazolin-2-one] gave a melting point of 290 to 291 °C.

`COc1ccc(-c2csc(N3Cc4ccccc4NC3=O)n2)c(OC)c1` [Example 41, 3-[4-(2,4-Dimethoxyphenyl)-1,3-thiazol-2-yl]-1,3,4-trihydroquinazolin-2-one] displayed a melting point of 283 to 288 °C.

`O=C1Nc2ccccc2CN1c1nc(-c2ccc(Cl)c(Cl)c2)cs1` [Example 44, 3-[4-(3,4-Dichlorophenyl)-1,3-thiazol-2-yl]-1,3,4-trihydroquinazolin-2-one] yielded a melting point of 295 to 299 °C.

In turn, `O=C1Nc2ccccc2CN1c1nc(-c2ccncc2)ns1` [Example 46, 3-(3-(4-Pyridyl)-1,2,4-thiadiazol-5-yl)-1,3,4-trihydroquinazolin-2-one] had a melting point above 290 °C.

Molecule `CN1CCC[C@H]1COc1cccc2c1CN(c1nc(-c3ccncc3)ns1)C(=O)N2` [Example 55, 5-[((2S)-1-Methylpyrrolidin-2-yl)methoxy]-3-(3-(4-pyridyl)-(1,2,4-thiadiazol-5-yl))-1,3,4-trihydroquinazolin-2-one] had a melting point above 250 °C.

With `O=C1Nc2ccccc2CN1c1nc(-c2ccc(F)c(F)c2)cs1` [Example 39, 3-[4-(3,4-Difluorophenyl)-1,3-thiazol-2-yl]-1,3,4-trihydroquinazolin-2-one], the melting point is 289 to 293 °C.

`O=C1Nc2cccc(CN3CCCCCC3)c2CN1c1csc(-c2ccncc2)n1` [Example 29, 5-(Azaperhydroepinylmethyl)-3-(2-(4-pyridyl)(1,3-thiazol-4-yl))-1,3,4-trihydroquinazolin-2-one] gave a melting point of 202 to 204 °C.

`O=C1Nc2cccc(CN3CCOCC3)c2CN1c1csc(-c2ccncc2)n1` (as salt: HCl) [Example 14, 5-(Morpholin-4-ylmethyl)-3-(2-(4-pyridyl)(1,3-thiazol-4-yl))-1,3,4-trihydroquinazolin-2-one] displayed a melting point of 261 to 263 °C.

Regarding `O=C1Nc2ccccc2CN1c1nc(-c2ccccn2)cs1` [Example 17, 3-(4-(2-Pyridyl)-1,3-thiazol-2-yl)-1,3,4-trihydroquinazolin-2-one], the melting point is above 275 °C.

In turn, `O=C1Nc2ccccc2CN1c1nc(-c2ccc(O)cc2)cs1` [Example 49, 3-[4-(4-Hydroxyphenyl)-1,3-thiazol-2-yl]-1,3,4-trihydroquinazolin-2-one] registered a melting point of 288 to 291 °C.

On to `COc1ccc(-c2csc(N3Cc4ccccc4NC3=O)n2)cc1` [Example 48, 3-[4-(4-Methoxyphenyl)-1,3-thiazol-2-yl]-1,3,4-trihydroquinazolin-2-one], for which the melting point was 275 to 278 °C.

Turning to `O=C1Nc2cccc(CN3CCCCC3)c2CN1c1csc(-c2ccncc2)n1` (as salt: HCl) [Example 15, 5-(Piperidylmethyl)-3-(2-(4-pyridyl)(1,3-thiazol-4-yl))-1,3,4-trihydroquinazolin-2-one], the melting point was in the range of 278 to 280 °C.

Consider `O=C1Nc2cccc(Cl)c2CN1c1nc(-c2ccncc2)cs1` [Example 43, 5-Chloro-3-(4-(4-pyridyl)(1,3-thiazol-2-yl))-1,3,4-trihydroquinazolin-2-one], for which the melting point is above 300 °C.

With `O=C1Nc2cccc(F)c2CN1c1csc(-c2ccncc2)n1` [Example 13, 5-Fluoro-3-(2-(4-pyridyl)(1,3-thiazol-4-yl))-1,3,4-trihydroquinazolin-2-one], the melting point is 247 to 249 °C.

Molecule `CN(C)CCN(C)c1ccc2c(c1)CN(c1nc(-c3ccncc3)cs1)C(=O)N2` [Example 37, 6-{[2-(Dimethylamino)ethyl](methyl)amino}-3-(4-(4-pyridyl)(1,3-thiazol-2-yl))-1,3,4-trihydroquinazolin-2-one] returned a melting point of 254 to 257 °C.

Regarding `O=C1Nc2cc(F)c(N3CCCCC3)cc2CN1c1csc(-c2ccncc2)n1` [Example 56, 7-Fluoro-6-piperidyl-3-(2-(4-pyridyl)(1,3-thiazol-4-yl))-1,3,4-trihydroquinazolin-2-one], the melting point fell in the range of 312 to 314 °C.

The molecule `O=C1Nc2ccccc2CN1c1nc(-c2ccncc2)cs1` [Example 16, 3-(4-(4-Pyridyl)-1,3-thiazol-2-yl)-1,3,4-trihydroquinazolin-2-one] had a melting point above 267 °C.

Molecule `O=C1Nc2cc(F)ccc2CN1c1csc(-c2ccncc2)n1` [Example 9, 7-Fluoro-3-(2-(4-pyridyl)(1,3-thiazol-4-yl))-1,3,4-trihydroquinazolin-2-one] gave a melting point of 285 to 286 °C.

Turning to `COc1cccc(-c2ccc3c(c2)NC(=O)N(c2csc(-c4ccncc4)n2)C3)c1` [Example 30, 7-(3-Methoxyphenyl)-3-(2-(4-pyridyl)(1,3-thiazol-4-yl))-1,3,4-trihydroquinazolin-2-one], the melting point was in the range of 256 to 258 °C.
